Source: paper PMC2999418, “Biological Activity and Binding Site Characteristics of the PA1b Entomotoxin on Insects from Different Orders” (Journal of Insect Science, 2007)

Experiments:
[1] = tested on: E. coli; assay: Antimicrobial test, bacterial survival; type: cell-based; conditions: increasing toxin concentration up to 64 µg-ml^-1, 24 and 48 hours
Protocol: (§1) A possible antimicrobial and antifungal activity of PA1b was next tested on four bacterial and three fungal species. The experiments were done using an increasing toxin concentration, up to 64 µg-ml^-1.

[2] = tested on: E. faecium; assay: Antimicrobial test, bacterial survival; type: cell-based; conditions: increasing toxin concentration up to 64 µg-ml^-1, 24 and 48 hours
Protocol: as §1

[3] = tested on: P. aeruginosa; assay: Antimicrobial test, bacterial survival; type: cell-based; conditions: increasing toxin concentration up to 64 µg-ml^-1, 24 and 48 hours
Protocol: as §1

[4] = tested on: S. aureus; assay: Antimicrobial test, bacterial survival; type: cell-based; conditions: increasing toxin concentration up to 64 µg-ml^-1, 24 and 48 hours
Protocol: as §1

[5] = tested on: midgut extracts from sensitive or resistant S. oryzae; conditions: ref Delobel and Rahbé, personnal communication; cited from earlier work
Text: Stating that the binding activity is widely present, while the toxicity is not, directly implies that other factors strongly influence the toxin toxicity. Pre-binding effects, such as toxin stability in the insect digestive tract, have been commonly described, either for bacterial toxins ([Keller et al. 1996]) or enzyme inhibitors ([Girard et al. 1998]). Although the structural features of PA1b, such as its cystine-knot core ([Jouvensal et al. 2003]), are known to confer high thermal, chemical and proteolytic stability ([Delobel et al. 1998]) the latter point was investigated using commercial ...

## ASCNGVCSPFEMPPCGTSACRCIPVGLVIGYCR NPSG (bicyclic or more) [PA1b, plant peptide of 37 amino acids purified from pea (Pisum sativum) seeds; entomotoxic cystine-knot peptide with three disulfide bonds]
[1]
  effect on bacterial survival: no effect was detected
[2]
  effect on bacterial survival: no effect was detected
[3]
  effect on bacterial survival: no effect was detected
[4]
  effect on bacterial survival: no effect was detected
[5]
  activity of midgut extracts on PA1b: do not show any activities on PA1b
